Laboratory results: ChEMBL document CHEMBL4229327, “Chemical Approaches to Modulating Complement-Mediated Diseases” (J Med Chem, 2018)
Bridge positions count the residues as written; N and C are the ends. Peptide text beside a SMILES is read from it.

Key:
[1] = Selectivity ratio of IC50 for rat serum alternative complement system-mediated lysis of guinea pig erythrocytes to IC50 for human serum C1s-mediated lysis of rabbit Ab-sensitized sheep erythrocytes after 60 mins
[2] = Inhibition of rat serum alternative complement system-mediated lysis of guinea pig erythrocytes
[3] = Inhibition of bovine trypsin esterolytic activity using Na-benzoyl-L-Arg-nitroanalide as substrate; design: species or system Bos taurus
[4] = molecular target: T1, Complement C1s subcomponent (Homo sapiens, UniProt P09871); test: Inhibition of C1s (unknown origin) using Cbz-Gly-Arg-S-Bzl as substrate preincubated with substrate for 15 mins followed by enzyme addition and measured after 5 mins
T1 sequence (P09871 whole entry): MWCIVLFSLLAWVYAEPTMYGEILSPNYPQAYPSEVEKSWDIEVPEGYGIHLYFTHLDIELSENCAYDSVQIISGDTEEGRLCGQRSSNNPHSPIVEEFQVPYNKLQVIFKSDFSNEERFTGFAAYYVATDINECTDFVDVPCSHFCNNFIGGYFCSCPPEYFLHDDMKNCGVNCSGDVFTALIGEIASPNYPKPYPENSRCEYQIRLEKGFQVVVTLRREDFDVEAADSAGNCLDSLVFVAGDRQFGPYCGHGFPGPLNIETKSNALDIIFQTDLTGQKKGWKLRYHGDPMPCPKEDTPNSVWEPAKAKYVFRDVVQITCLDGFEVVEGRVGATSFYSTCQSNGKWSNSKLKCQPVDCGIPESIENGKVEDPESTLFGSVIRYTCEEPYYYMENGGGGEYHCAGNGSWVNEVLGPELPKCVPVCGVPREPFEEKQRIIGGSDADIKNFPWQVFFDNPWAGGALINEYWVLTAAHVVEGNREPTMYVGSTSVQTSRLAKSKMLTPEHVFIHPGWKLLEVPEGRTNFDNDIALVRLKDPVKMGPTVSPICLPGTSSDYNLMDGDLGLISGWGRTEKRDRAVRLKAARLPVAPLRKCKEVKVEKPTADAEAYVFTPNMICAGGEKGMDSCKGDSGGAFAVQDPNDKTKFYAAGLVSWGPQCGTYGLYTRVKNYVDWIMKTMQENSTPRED

[5] = molecular target: T2, Mannan-binding lectin serine protease 1 (Homo sapiens, UniProt P48740); test: Inhibition of recombinant […] fragment of MASP-1 (unknown origin)
T2 sequence (P48740 whole entry): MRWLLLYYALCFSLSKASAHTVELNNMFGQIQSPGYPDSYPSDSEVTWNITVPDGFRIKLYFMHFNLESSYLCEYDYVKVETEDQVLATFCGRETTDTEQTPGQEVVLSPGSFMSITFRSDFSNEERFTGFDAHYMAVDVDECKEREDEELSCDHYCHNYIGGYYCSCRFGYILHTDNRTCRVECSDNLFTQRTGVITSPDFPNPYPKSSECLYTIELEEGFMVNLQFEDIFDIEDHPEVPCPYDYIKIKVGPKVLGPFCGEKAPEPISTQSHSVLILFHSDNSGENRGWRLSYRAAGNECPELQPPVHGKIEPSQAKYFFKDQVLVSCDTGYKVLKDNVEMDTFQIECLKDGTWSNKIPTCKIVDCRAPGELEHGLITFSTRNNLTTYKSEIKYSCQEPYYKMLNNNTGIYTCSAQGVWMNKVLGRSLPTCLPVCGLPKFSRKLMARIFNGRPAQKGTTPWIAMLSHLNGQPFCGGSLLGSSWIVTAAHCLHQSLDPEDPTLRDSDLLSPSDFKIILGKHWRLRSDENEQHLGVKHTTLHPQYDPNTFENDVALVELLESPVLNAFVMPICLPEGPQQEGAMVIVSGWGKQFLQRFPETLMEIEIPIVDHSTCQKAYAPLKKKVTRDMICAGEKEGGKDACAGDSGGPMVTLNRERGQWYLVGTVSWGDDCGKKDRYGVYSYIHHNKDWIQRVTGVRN

[6] = molecular target: T2, Mannan-binding lectin serine protease 1; test: Inhibition of MASP1 (unknown origin)-induced lectin pathway by ELISA
[7] = Inhibition of rat serum C1q-mediated rabbit RBC lysis after 60 mins
[8] = Inhibition of chimpanzee serum C1q-mediated rabbit RBC lysis after 60 mins; design: species or system Pan troglodytes
[9] = Inhibition of mouse serum C1q-mediated rabbit RBC lysis after 60 mins
[10] = Inhibition of rhesus monkey serum C1q-mediated rabbit RBC lysis after 60 mins; design: species or system Macaca mulatta
[11] = Inhibition of human plasma C1q-mediated rabbit RBC lysis after 60 mins
[12] = molecular target: T2, Mannan-binding lectin serine protease 1; test: Inhibition of MASP-1 (unknown origin) using Z-L-LysSBzl hydrochloride as substrate preincubated for 1 hr followed by substrate addition
[13] = molecular target: T2, Mannan-binding lectin serine protease 1; test: Inhibition of MASP-1-mediated C3 deposition in human serum after 30 mins by ELISA
[14] = molecular target: T3, Mannan-binding lectin serine protease 2 (Homo sapiens, UniProt O00187); test: Inhibition of MASP-2-mediated C4 deposition in human serum after 1 hr by ELISA
[15] = molecular target: T3, Mannan-binding lectin serine protease 2; test: Inhibition of MASP-2 (unknown origin) using Z-L-LysSBzl hydrochloride as substrate preincubated for 1 hr followed by substrate addition
[16] = molecular target: T4, Complement C1r subcomponent (Homo sapiens, UniProt P00736); test: Inhibition of human serum C1r using AAME as substrate after 30 mins
T4 sequence (P00736 whole entry): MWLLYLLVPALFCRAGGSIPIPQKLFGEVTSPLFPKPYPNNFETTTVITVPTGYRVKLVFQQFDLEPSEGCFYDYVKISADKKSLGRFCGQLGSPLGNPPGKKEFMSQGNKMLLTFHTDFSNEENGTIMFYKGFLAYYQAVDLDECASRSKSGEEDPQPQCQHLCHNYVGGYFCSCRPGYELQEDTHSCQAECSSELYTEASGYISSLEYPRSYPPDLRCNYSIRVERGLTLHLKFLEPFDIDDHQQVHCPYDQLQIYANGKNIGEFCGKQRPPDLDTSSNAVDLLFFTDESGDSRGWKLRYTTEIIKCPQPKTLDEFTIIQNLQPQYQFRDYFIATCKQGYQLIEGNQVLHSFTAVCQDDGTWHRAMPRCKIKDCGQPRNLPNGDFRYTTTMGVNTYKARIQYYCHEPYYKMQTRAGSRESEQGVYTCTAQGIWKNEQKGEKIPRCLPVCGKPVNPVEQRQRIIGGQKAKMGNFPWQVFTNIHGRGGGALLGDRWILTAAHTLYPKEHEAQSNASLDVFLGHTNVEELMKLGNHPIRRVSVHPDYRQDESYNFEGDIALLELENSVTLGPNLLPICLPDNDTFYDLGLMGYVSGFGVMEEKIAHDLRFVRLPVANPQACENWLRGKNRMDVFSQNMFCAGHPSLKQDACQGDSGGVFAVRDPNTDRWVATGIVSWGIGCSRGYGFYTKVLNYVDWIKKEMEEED

[17] = molecular target: T1, Complement C1s subcomponent; test: Inhibition of human serum C1s using AGLME as substrate after 30 mins
[18] = molecular target: T4, Complement C1r subcomponent; test: Inhibition of human plasma C1r using Cbz-Gly-Arg-S-Bzl as substrate preincubated for 10 mins followed by substrate addition and measured after 30 mins by DTNB reagent-based two-beam microtiter plate photometer
[19] = molecular target: T1, Complement C1s subcomponent; test: Inhibition of human plasma C1s using Cbz-Gly-Arg-S-Bzl as substrate preincubated for 10 mins followed by substrate addition and measured after 30 mins by DTNB reagent-based two-beam microtiter plate photometer
[20] = Binding affinity to C1q (unknown origin) by SPR method; design: species or system Homo sapiens
[21] = Inhibition of guinea pig C1q-mediated sheep RBC lysis; design: species or system Cavia porcellus

T3 sequence (O00187 16-444 limits assumed): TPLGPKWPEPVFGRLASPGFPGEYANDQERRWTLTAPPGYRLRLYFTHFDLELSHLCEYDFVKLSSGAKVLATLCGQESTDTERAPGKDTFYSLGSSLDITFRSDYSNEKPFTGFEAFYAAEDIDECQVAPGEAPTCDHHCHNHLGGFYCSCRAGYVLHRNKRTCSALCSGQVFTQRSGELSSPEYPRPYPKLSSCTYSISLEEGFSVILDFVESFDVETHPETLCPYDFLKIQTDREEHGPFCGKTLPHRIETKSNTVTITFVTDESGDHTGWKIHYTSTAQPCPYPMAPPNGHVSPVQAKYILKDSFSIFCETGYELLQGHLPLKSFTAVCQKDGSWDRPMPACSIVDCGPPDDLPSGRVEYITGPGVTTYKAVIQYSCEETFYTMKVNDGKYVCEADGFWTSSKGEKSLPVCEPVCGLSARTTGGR
T3 sequence (O00187 445-686 limits assumed): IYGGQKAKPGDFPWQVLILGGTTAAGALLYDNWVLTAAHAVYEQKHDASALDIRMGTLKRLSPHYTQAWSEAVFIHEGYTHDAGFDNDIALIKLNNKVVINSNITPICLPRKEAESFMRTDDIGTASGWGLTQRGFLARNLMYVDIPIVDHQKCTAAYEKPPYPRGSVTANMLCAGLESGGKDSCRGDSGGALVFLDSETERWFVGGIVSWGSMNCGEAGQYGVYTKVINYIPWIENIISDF

## N=C(N)c1cc2ccc(OC(=O)c3cccs3)cc2s1
[1]
  Ratio IC50: 7
[2]
  IC50: 330 nM
[3]
  IC50: 326 nM

## CSc1sc(C(=N)N)cc1-c1nc(-c2cccc(NS(=O)(=O)c3ccc(F)cc3F)c2)cs1
[4]
  Ki: 30 nM

## CC(C)C[C@H](NC(=O)[C@H](CCCCN)NC(=O)[C@H](CCCNC(=N)N)NC(=O)[C@@H](NC(=O)[C@H](CS)NC(=O)[C@H](Cc1ccccc1)NC(=O)[C@H](C)NC(=O)[C@H](CO)NC(=O)[C@H](CCCCN)NC(=O)CNC(=O)[C@H](CC(=O)O)NC(=O)[C@H](CO)NC(=O)CNC(=O)[C@H](CS)NC(=O)[C@H](CCCNC(=N)N)NC(=O)[C@H](CS)NC(=O)[C@@H](NC(=O)[C@H](CC(N)=O)NC(=O)[C@H](CS)NC(=O)[C@H](CCCCN)NC(=O)[C@H](CC(=O)O)NC(=O)[C@H](CCCCN)NC(=O)[C@H](Cc1ccccc1)NC(=O)[C@@H](NC(=O)[C@@H](NC(=O)CNC(=O)[C@@H]1CCCN1C(=O)[C@H](CCC(=O)O)NC(=O)[C@H](CS)NC(=O)[C@@H](NC(=O)[C@@H](N)C(C)C)[C@@H](C)O)[C@@H](C)O)[C@@H](C)O)[C@@H](C)O)[C@@H](C)O)C(=O)N[C@@H](CS)C(=O)N[C@@H](Cc1ccc(O)cc1)C(=O)N[C@@H](CCC(N)=O)C(=O)O (H-VTCEPGTTFKDKCNTCRCGSDGKSAFCTRKLCYQ-OH)
[5]
  Ki: 7 nM
[6]
  IC50: 42 nM

## CC(C)C[C@@H]1NC(=O)[C@H](CC(=O)O)NC(=O)[C@H](Cc2c[nH]cn2)NC(=O)[C@H](CCCNC(=N)N)NC(=O)[C@@H]2CCCN2C(=O)CNC(=O)[C@H](Cc2ccccc2)NC(=O)[C@@H]2CCCN2C(=O)CNC(=O)[C@H](CCC(=O)O)NC(=O)[C@@H](N)CSSC[C@@H](C(=O)N[C@@H](Cc2c[nH]c3ccccc23)C(=O)O)NC(=O)[C@H](Cc2ccccc2)NC(=O)[C@H]([C@@H](C)O)NC1=O (H-CEGPFGPRHDLTFCW-OH; disulfide 1-14)
[7]
  IC50: 2000 to 6000 nM
[8]
  IC50: 2000 to 6000 nM
[9]
  IC50: 2000 to 6000 nM
[10]
  IC50: 2000 to 6000 nM
[11]
  IC50: 2000 nM

## CC[C@H](C)[C@H](NC(=O)CN)C(=O)N[C@@H](CS)C(=O)N[C@@H](CO)C(=O)N[C@@H](CCCNC(=N)N)C(=O)N[C@@H](CO)C(=O)N[C@@H](CC(C)C)C(=O)N1CCC[C@H]1C(=O)N1CCC[C@H]1C(=O)N[C@H](C(=O)N[C@@H](CS)C(=O)N[C@H](C(=O)N1CCC[C@H]1C(=O)N[C@@H](CC(=O)O)C(=O)O)[C@@H](C)CC)[C@@H](C)CC (H-GICSRSLPPICIPD-OH)
[12]
  Ki: 65 nM
[13]
  IC50: 40 nM
[14]
  IC50: 230 nM
[15]
  Ki: 1030 nM

## N=C(N)c1ccc2cc(OC(=O)c3ccc(N=C(N)N)cc3)ccc2c1 [NAFAMOSTAT]
[16]
  IC50: 800 nM
[17]
  IC50: 29 nM

## CC(C)[C@@H](NC(=O)Cc1c(Cl)cccc1Cl)C(=O)N1CC=CC1C(=O)NCc1ccc(C(=N)N)s1 (stereo partly specified)
[18]
  IC50: 600 nM
[19]
  IC50: 900 nM

## CC[C@H](C)[C@H](N)C(=O)N[C@@H](C)C(=O)N[C@@H](CC(C)C)C(=O)N[C@H](C(=O)N[C@@H](CC(C)C)C(=O)N[C@@H](CCC(=O)O)C(=O)N1CCC[C@H]1C(=O)N[C@H](C(=O)N[C@@H](CS)C(=O)N[C@@H](CS)C(=O)N[C@@H](CCC(N)=O)C(=O)N[C@@H](CCC(=O)O)C(=O)N[C@@H](CCCNC(=N)N)C(=O)N[C@@H](C)C(=O)N[C@@H](C)C(=O)O)[C@@H](C)CC)[C@@H](C)CC
[20]
  Kd: 33 nM

## CC(=O)N[C@@H](C)C(=O)N[C@@H](CCC(=O)O)C(=O)N[C@@H](C)C(=O)N[C@@H](CCCCN)C(=O)N[C@@H](C)C(=O)N[C@@H](CCCCN)C(=O)N[C@@H](C)C(N)=O (Ac-AEAKAKA-NH2)
[21]
  IC50: 166000 nM
